Experimental data as given in ChEMBL document CHEMBL1629698, “Identification of the novel dfrK-carrying transposon Tn559 in a porcine methicillin-susceptible Staphylococcus aureus ST398 strain” (2010).
≈ marks a conversion by molar mass, not a printed value.

System: Staphylococcus aureus
Experiment: Antimicrobial activity against Staphylococcus aureus 2171 by broth microdilution method
Type: functional

| SMILES | MIC |
| --- | --- |
| CCC[C@@H]1C[C@@H](C(=O)N[C@@H]([C@H]2O[C@H](SC)[C@H](O)[C@@H](O)[C@H]2O)[C@H](C)Cl)N(C)C1 [CLINDAMYCIN] | ≥ 128 µg/mL |
| CCN1CCN(c2cc3c(cc2F)c(=O)c(C(=O)O)cn3C2CC2)CC1 [ENROFLOXACIN] | 8 µg/mL (≈ 22.3 µM) |
| CN(C)[C@@H]1C(O)=C(C(N)=O)C(=O)[C@@]2(O)C(O)=C3C(=O)c4c(O)cccc4[C@@](C)(O)[C@H]3C[C@@H]12 [TETRACYCLINE] | 32 µg/mL (≈ 72 µM) |
| CC1(C)S[C@@H]2[C@H](NC(=O)Cc3ccccc3)C(=O)N2[C@H]1C(=O)O [PENICILLIN G] | 8 µg/mL (≈ 23.9 µM) |
| CC[C@H]1OC(=O)[C@H](C)[C@@H](O[C@H]2C[C@@](C)(OC)[C@@H](O)[C@H](C)O2)[C@H](C)[C@@H](O[C@@H]2O[C@H](C)C[C@H](N(C)C)[C@H]2O)[C@](C)(O)C[C@@H](C)C(=O)[C@H](C)[C@@H](O)[C@]1(C)O [ERYTHROMYCIN] | ≥ 64 µg/mL |
| CC1(C)S[C@@H]2[C@H](NC(=O)[C@H](N)c3ccccc3)C(=O)N2[C@H]1C(=O)O [AMPICILLIN] | 4 µg/mL (≈ 11.4 µM) |
| COc1cc(Cc2cnc(N)nc2N)cc(OC)c1OC [TRIMETHOPRIM] | ≥ 128 µg/mL |
| Cc1onc(-c2ccccc2)c1C(=O)N[C@@H]1C(=O)N2[C@@H]1SC(C)(C)[C@@H]2C(=O)O [OXACILLIN] | 0.5 µg/mL (≈ 1.25 µM) |
